Results on 37 molecules are retold here after US5138069A (E. I. Du Pont de Nemours and Company, priority 1988, dated 1992).

In the assay the test system is Renal Hypertensive Rats. Put plainly: Antihypertensive effects in renal hypertensive rats. The assay is classed as in vivo. Particulars: Rattus norvegicus; for minimal effective dose at 10 mg/kg / minimal effective dose at 100 mg/kg: Table 25; for minimal effective dose at 10 mg/kg / minimal effective dose at 3 mg/kg: intravenous; for minimal effective dose at 10 mg/kg: 10 mg/kg or less; for minimal effective dose at 100 mg/kg / minimal effective dose at 30 mg/kg: oral; for minimal effective dose at 100 mg/kg: 100 mg/kg or less; for minimal effective dose at 3 mg/kg / minimal effective dose at 30 mg/kg: Table 26. The protocol:
This procedure increases blood pressure by increasing renin production with consequent elevation of AII levels. Compounds are administered orally at 100 mg/kg and/or intravenously via a cannula in the jugular vein at 10 mg/kg. Arterial blood pressure is continuously measured directly through a carotid artery cannula and recorded using a pressure transducer and a polygraph. Blood pressure levels after treatment are compared to pretreatment levels to determine the antihypertensive effects of the compounds (See Table 25).
Compounds listed in Table 26 were tested in the same manner as described for Table 25, except that in the test for antihypertensive effects in renal hypertensive rats, the compounds were administered orally at 30 mg/kg and intravenously at 3 mg/kg.

As usually defined, the minimal effective dose is the smallest amount tested that counted as effective.

As for `CCCCc1nc(Cl)c(CO)n1Cc1ccc(-c2occc2C(=O)O)cc1` (single isomer, unassigned) [Example 178, 2-n-Butyl-1-[4-(3-carboxyfuran-2-yl)benzyl]-4-chloro-5-(hydroxymethyl)imidazole], the minimal effective dose at 10 mg/kg is < 10 mg/kg and the minimal effective dose at 100 mg/kg was < 100 mg/kg.

Consider `CCCCc1nc(Cl)c(CC(=O)O)n1Cc1ccc(C(=O)O)cc1` [Example 1, 2-Butyl-1-(4-carboxybenzyl)-4-chloroimidazole-5-acetic acid], for which the minimal effective dose at 10 mg/kg was < 10 mg/kg and the minimal effective dose at 100 mg/kg was > 100 mg/kg.

For `CCCCc1nc(Cl)c(CC(=O)OC)n1Cc1ccc(NC(=O)c2ccccc2C(=O)O)cc1` [Example 2, Methyl 2-butyl-1-[4-(2-carboxybenzamido)benzyl]-4-chloroimidazole-5-acetate], for the setting “tested as sodium salt”, the minimal effective dose at 10 mg/kg was < 10 mg/kg and the minimal effective dose at 100 mg/kg was > 100 mg/kg.

In the case of `CCCCc1nc(Cl)c(COC)n1Cc1ccc(NC(=O)c2ccccc2C(=O)O)cc1` [Example 4, 2-Butyl-1-[4-(2-carboxybenzamido)benzyl]-4-chloro-5-(methoxymethyl)-imidazole], for the setting “tested as sodium salt”, the minimal effective dose at 10 mg/kg was < 10 mg/kg and the minimal effective dose at 100 mg/kg is > 100 mg/kg.

Regarding `CCCCc1nc(Cl)c(CC(=O)OC)n1Cc1ccc(NC(=O)c2c(F)c(F)c(F)c(F)c2C(=O)O)cc1` [Example 8], where the note is “tested as sodium salt”, the minimal effective dose at 100 mg/kg was > 100 mg/kg.

Regarding `CCCCc1nc(Cl)c(COC)n1Cc1ccc(NC(=O)c2c(Cl)ccc(Cl)c2C(=O)O)cc1` [Example 17], under “tested as sodium salt”, the minimal effective dose at 10 mg/kg is < 10 mg/kg and the minimal effective dose at 100 mg/kg is > 100 mg/kg.

On to `CCCCc1nc(Cl)c(COC)n1Cc1ccc(NC(=O)c2ccccc2S(=O)(=O)O)cc1` [Example 18a], for which the minimal effective dose at 3 mg/kg was < 3 mg/kg and the minimal effective dose at 30 mg/kg is < 30 mg/kg.

Turning to `CCCCc1nc(Cl)c(CO)n1Cc1ccc(-c2cccc(C(=O)O)c2)cc1` [Example 85, 1-[(3'-Carboxybiphenyl-4-yl)-methyl]-2-butyl-4-chloro-5-hydroxymethylimidazole], the minimal effective dose at 10 mg/kg was < 10 mg/kg and the minimal effective dose at 100 mg/kg is < 100 mg/kg.

Consider `CCCCc1nc(Cl)c(COC)n1Cc1ccc(-c2cccc(C(=O)O)c2)cc1` [Example 86, 1-[(3'-Carboxybiphenyl-4-yl)-methyl]-2-butyl-4-chloro-5-methoxymethylimidazole], for which the minimal effective dose at 10 mg/kg was < 10 mg/kg and the minimal effective dose at 100 mg/kg is > 100 mg/kg.

For the molecule `CCCCc1nc(Cl)c(CO)n1Cc1ccc(-c2ccccc2-c2nnn[nH]2)cc1` [Example 89, 2-n-butyl-4-chloro-5-hydroxymethyl-1-[(2'-(1H-tetrazol-5-yl)biphenyl-4-yl)methyl]imidazole], the minimal effective dose at 10 mg/kg is < 10 mg/kg and the minimal effective dose at 100 mg/kg was < 100 mg/kg.

Turning to `CCCCc1nc(C(F)(F)F)c(CO)n1Cc1ccc(-c2ccccc2-c2nnn[nH]2)cc1` [Example 92B, 2-butyl-5-hydroxymethyl-1-[(2'-(1H-tetrazol-5-yl)biphenyl-4-yl)methyl]-4-trifluoromethylimidazole], the minimal effective dose at 3 mg/kg is < 3 mg/kg.

As to `CCCSc1ncc(CO)n1Cc1ccc(-c2ccccc2C(=O)O)cc1` [Example 93, 1-[(2'-carboxybiphenyl-4-yl)-methyl]-2-propylthio-5-hydroxymethylimidazole], the minimal effective dose at 10 mg/kg is < 10 mg/kg and the minimal effective dose at 100 mg/kg is > 100 mg/kg.

Take `CCCCc1nc(Cl)c(COC)n1Cc1ccc(-c2ccccc2C(=O)O)cc1` [Example 98]: for the setting “tested as sodium salt”, the minimal effective dose at 10 mg/kg is < 10 mg/kg and the minimal effective dose at 100 mg/kg was < 100 mg/kg.

Consider `CCCCCCc1nc(Cl)c(CO)n1Cc1ccc(-c2ccccc2C(=O)O)cc1` [Example 110], for which the minimal effective dose at 10 mg/kg is < 10 mg/kg and the minimal effective dose at 100 mg/kg was < 100 mg/kg.

Regarding `CCCCc1nc(Cl)c(COC(C)=O)n1Cc1ccc(-c2ccccc2C(=O)O)cc1` [Example 121], the minimal effective dose at 10 mg/kg was < 10 mg/kg and the minimal effective dose at 100 mg/kg is < 100 mg/kg.

Take `CCCCc1nc(Br)c(CO)n1Cc1ccc(-c2ccccc2-c2nn[nH]n2)cc1` [Example 124C]: the minimal effective dose at 3 mg/kg was < 3 mg/kg and the minimal effective dose at 30 mg/kg was < 30 mg/kg.

Take `CCCCc1nc(I)c(CO)n1Cc1ccc(-c2ccccc2-c2nnn[nH]2)cc1` [Example 124L]: the minimal effective dose at 3 mg/kg is < 3 mg/kg and the minimal effective dose at 30 mg/kg is < 30 mg/kg.

With `CCCCc1nc(Cl)c(C=O)n1Cc1ccc(-c2ccccc2C(=O)O)cc1` [Example 125, 1-[(2'-carboxybiphenyl-4-yl)methyl]-2-butyl-4-chloroimidazole-5-carboxaldehyde], the minimal effective dose at 10 mg/kg is < 10 mg/kg and the minimal effective dose at 100 mg/kg was < 100 mg/kg.

For the molecule `CC/C=C/c1nc(Cl)c(CO)n1Cc1ccc(-c2ccccc2C(=O)O)cc1` [Example 128, 1-[(2'-Carboxybiphenyl-4-yl)-methyl]-2-(1-trans-butenyl)-4-chloro-5-hydroxymethylimidazole], the minimal effective dose at 10 mg/kg is < 10 mg/kg and the minimal effective dose at 100 mg/kg was < 100 mg/kg.

Consider `CC/C=C/c1nc(Cl)c(C=O)n1Cc1ccc(-c2ccccc2C(=O)O)cc1` [Example 129, 1-[(2'-Carboxybiphenyl-4-yl)methyl]-2-(1-trans-butenyl)-4-chloroimidazole-5-carboxaldehyde], for which the minimal effective dose at 10 mg/kg was < 10 mg/kg and the minimal effective dose at 100 mg/kg is < 100 mg/kg.

Consider `CCCc1nc(C(F)(F)C(F)(F)F)c(C=O)n1Cc1ccc(-c2ccccc2-c2nnn[nH]2)cc1` [Example 140G], for which the minimal effective dose at 30 mg/kg is < 30 mg/kg.

As for `CCCCc1nc(Cl)c(COC)n1Cc1ccc(-c2ccccc2NS(=O)(=O)C(F)(F)F)cc1` [Example 141, 1-[(2'-trifluoromethanesulfonamidobiphenyl-4-yl)methyl]-2-butyl-4-chloro-5-methoxymethylimidazole], the minimal effective dose at 10 mg/kg was < 10 mg/kg and the minimal effective dose at 100 mg/kg is < 100 mg/kg.

Take `CCCCc1nc(Cl)c(CO)n1Cc1ccc(-c2ccccc2NS(=O)(=O)C(F)(F)F)cc1` [Example 144]: the minimal effective dose at 10 mg/kg is < 10 mg/kg and the minimal effective dose at 100 mg/kg is < 100 mg/kg.

Turning to `CCCCc1nc(Cl)c(COC)n1Cc1ccc(-c2ccccc2C(=O)Nc2nnn[nH]2)cc1` [Example 173, 2-n-Butyl-4-chloro-5-methoxymethyl-1-[(2'-((tetrazol-5-yl)aminocarbonyl)biphenyl-4-yl)-methyl]imidazole], under “tested as sodium salt”, the minimal effective dose at 10 mg/kg is < 10 mg/kg.

Consider `CCCCc1nc(Cl)c(CO)n1Cc1ccc(-c2ccccc2C(=O)NOC)cc1` [Example 180, 1-[(2'-Methoxyaminocarbonylbiphenyl-4-yl)methyl]-2-butyl-4-chloro-5-hydroxymethylimidazole], for which the minimal effective dose at 10 mg/kg is < 10 mg/kg and the minimal effective dose at 100 mg/kg was > 100 mg/kg.

In the case of `CCCCc1nc(Cl)c(CO)n1Cc1ccc(-c2ccccc2NC(=O)C(F)(F)F)cc1` [Example 183, 1-[(2'-Trifluoroacetamidobiphenyl-4-yl)methyl]-2-butyl-4-chloro-5-hydroxymethylimidazole], the minimal effective dose at 10 mg/kg was < 10 mg/kg and the minimal effective dose at 100 mg/kg was > 100 mg/kg.

In the case of `CCCCc1nc(Cl)c(CO)n1Cc1ccc(Oc2ccccc2C(=O)O)cc1` [Example 184, 2-Butyl-4-chloro-1-[4-(2-carboxyphenoxy)benzyl]-5-hydroxymethylimidazole], the minimal effective dose at 10 mg/kg is < 10 mg/kg and the minimal effective dose at 100 mg/kg is > 100 mg/kg.

As for `CCCCc1nc(Cl)c(CO)n1Cc1ccc(Sc2ccccc2C(=O)O)cc1` [Example 185], the minimal effective dose at 10 mg/kg is < 10 mg/kg and the minimal effective dose at 100 mg/kg was > 100 mg/kg.

For `CCCCc1ncc(CO)n1Cc1ccc(OCc2ccccc2C(=O)O)cc1` [Example 193, 1-[4-(2-Carboxybenzyloxy)-benzyl] -2-butyl-5-hydroxymethylimidazole], the minimal effective dose at 10 mg/kg was < 10 mg/kg and the minimal effective dose at 100 mg/kg is > 100 mg/kg.

Turning to `CCCCc1nc(Cl)c(CO)n1Cc1ccc(OCc2ccccc2C(=O)O)cc1` [Example 195], the minimal effective dose at 10 mg/kg was < 10 mg/kg and the minimal effective dose at 100 mg/kg was < 100 mg/kg.

Take `CCCCc1nc(Cl)c(COC(C)=O)n1Cc1ccc(OCc2ccccc2C(=O)O)cc1` [Example 199]: the minimal effective dose at 100 mg/kg is > 100 mg/kg.

Take `CCCCc1nc(Cl)c(CO)n1Cc1ccc(C(=O)c2ccccc2C(=O)O)cc1` [Example 202, 2-Butyl-1-[4-(2-Carboxybenzoyl)benzyl]-4-chloro-5-(hydroxymethyl)imidazole]: for the setting “tested as sodium salt”, the minimal effective dose at 10 mg/kg is < 10 mg/kg and the minimal effective dose at 100 mg/kg was > 100 mg/kg.

`CCCCc1nc(CO)c(Cl)n1Cc1ccc(C(=O)c2ccccc2C(=O)O)cc1` [Example 203]: for the setting “tested as sodium salt”, the minimal effective dose at 10 mg/kg is < 10 mg/kg and the minimal effective dose at 100 mg/kg was < 100 mg/kg.

In the case of `CCCCc1nc(Cl)c(COC)n1Cc1ccc(C(=O)c2ccccc2C(=O)O)cc1` [Example 207], for the setting “tested as sodium salt”, the minimal effective dose at 10 mg/kg is < 10 mg/kg and the minimal effective dose at 100 mg/kg is < 100 mg/kg.

With `CCCCc1nc(Cl)c(C(=O)O)n1Cc1ccc(-c2ccccc2-c2nn[nH]n2)cc1` [Example 252], the minimal effective dose at 3 mg/kg is < 3 mg/kg and the minimal effective dose at 30 mg/kg is < 30 mg/kg.

In the case of `CCCc1nc(C(F)(F)C(F)(F)F)c(C(=O)O)n1Cc1ccc(-c2ccccc2-c2nn[nH]n2)cc1` [Example 265C], the minimal effective dose at 3 mg/kg was < 3 mg/kg.

Consider `CCCCc1nc(Cl)c(CO)n1Cc1ccc(-c2ccccc2C(=O)NS(=O)(=O)c2ccccc2)cc1` [Example 318, 1-[(2'-(Benzenesulfonamidocarbonyl)biphenyl-4-yl)methyl]-2-butyl-4-chloro-5-hydroxymethylimidazole], for which the minimal effective dose at 10 mg/kg was < 10 mg/kg and the minimal effective dose at 100 mg/kg was > 100 mg/kg.
